Data on 36 compounds can be found in patent US20250223277A1, “COMPLEMENT FACTOR B INHIBITORS AND USES THEREOF” (Novartis AG, priority 2022, published 2025).

Each structure is given as a SMILES string. pIC50: −log10 of the molar value.

Sequence of Recombinant human factor B (P00751 26-764): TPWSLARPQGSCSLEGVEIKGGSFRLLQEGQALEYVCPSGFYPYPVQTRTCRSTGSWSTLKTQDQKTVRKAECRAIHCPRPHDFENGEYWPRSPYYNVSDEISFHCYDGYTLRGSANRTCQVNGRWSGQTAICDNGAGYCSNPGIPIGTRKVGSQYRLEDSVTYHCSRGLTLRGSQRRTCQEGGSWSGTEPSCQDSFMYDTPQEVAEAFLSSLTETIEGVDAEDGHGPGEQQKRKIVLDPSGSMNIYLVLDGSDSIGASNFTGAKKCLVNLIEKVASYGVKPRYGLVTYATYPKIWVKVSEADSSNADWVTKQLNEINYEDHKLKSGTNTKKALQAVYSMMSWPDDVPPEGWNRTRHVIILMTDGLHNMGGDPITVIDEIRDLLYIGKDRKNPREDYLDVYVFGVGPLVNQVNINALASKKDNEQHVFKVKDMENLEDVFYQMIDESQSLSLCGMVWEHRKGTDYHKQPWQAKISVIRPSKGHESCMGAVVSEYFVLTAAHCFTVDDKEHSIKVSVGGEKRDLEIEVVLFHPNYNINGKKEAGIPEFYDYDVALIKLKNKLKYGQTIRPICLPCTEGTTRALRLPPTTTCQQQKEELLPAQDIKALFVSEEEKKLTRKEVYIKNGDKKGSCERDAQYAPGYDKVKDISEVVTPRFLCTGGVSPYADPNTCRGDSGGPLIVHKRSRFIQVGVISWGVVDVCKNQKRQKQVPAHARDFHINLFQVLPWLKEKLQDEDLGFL

The test addresses Recombinant human factor B (Homo sapiens (Human), UniProt P00751). Put plainly: Human Complement Factor B TR-FRET Assay. Format: binding. The settings on record: assay of Biological Example 2; read-out: hFactor-B TR-FRET Qualified IC50. As to the method: The time-gated decrease in fluorescence intensity related to the competition between labeled and unlabeled factor B ligands was recorded at both 620 nm and 665 nm, 70 us after excitation at 337 nm using a microplate spectrofluorimeter.
What is called pIC50 is the negative decadic logarithm of the IC50, by convention in mol/L. For `Cc1cc(C)c2[nH]ccc2c1C[C@@H]1CN(CC(F)(F)F)C[C@H]1c1ccc(C(=O)O)cc1` (racemic) [Ex-26, 4-(4-((5,7-dimethyl-1H-indol-4-yl)methyl)-1-(2,2,2-trifluoroethyl)pyrrolidin-3-yl)benzoic acid], the pIC50 is greater than 4.52.

Regarding `Cc1cc(C)c2[nH]ccc2c1C[C@@H]1CN(C)C[C@H]1c1ccc(C(N)=O)cc1` (racemic) [Ex-58, Racemic 4-((3R*,4S*)-4-((5,7-dimethyl-1H-indol-4-yl)methyl)-1-methylpyrrolidin-3-yl)benzamide], the pIC50 was greater than 4.52. On to `CCN1C[C@@H](Cc2c(C3CC3)cc(C)c3[nH]ccc23)[C@H](c2ccc(-c3nnn[nH]3)cc2)C1` (racemic) [Ex-61, 4-((4-(4-(1H-tetrazol-5-yl)phenyl)-1-ethylpyrrolidin-3-yl)methyl)-5-cyclopropyl-7-methyl-1H-indole], for which the negative-log IC50 (pIC50) is greater than 7.00. The same measure for `Cc1cc(C)c2[nH]ccc2c1C[C@@H]1CCN(CC(F)(F)F)C[C@H]1c1ccc(C(=O)O)cc1` [Ex-1, 4-((3R,4R)-4-((5,7-dimethyl-1H-indol-4-yl)methyl)-1-(2,2,2-trifluoroethyl)piperidin-3-yl)benzoic acid]: greater than 7.00; for `Cc1cc(C)c2[nH]ccc2c1C[C@H]1CCN(CC(F)(F)F)C[C@@H]1c1ccc(C(=O)O)cc1` [Ex-2, 4-((3S,4S)-4-((5,7-dimethyl-1H-indol-4-yl)methyl)-1-(2,2,2-trifluoro-ethyl)piperidin-3-yl)benzoic acid]: greater than 4.52; for `Cc1cc(C2CC2)c(C[C@@H]2CCN(CC(F)(F)F)C[C@H]2c2ccc(C(=O)O)cc2)c2cc[nH]c12` [Ex-3, 4-((3R,4R)-4-((5-cyclopropyl-7-methyl-1H-indol-4-yl)methyl)-1-(2,2,2-trifluoroethyl)piperidin-3-yl)benzoic acid]: greater than 7.00. As for `Cc1cc(C2CC2)c(C[C@H]2CCN(CC(F)(F)F)C[C@@H]2c2ccc(C(=O)O)cc2)c2cc[nH]c12` [Ex-4], the figure is greater than 4.52.

For the compound `COc1cc(C)c2[nH]ccc2c1C[C@@H]1CCN(CC(F)(F)F)C[C@H]1c1ccc(C(=O)O)cc1` [Ex-5, 4-((3R,4R)-4-((5-methoxy-7-methyl-1H-indol-4-yl)methyl)-1-(2,2,2-trifluoroethyl)piperidin-3-yl)benzoic acid], the negative logarithm of the IC50 (pIC50) was greater than 6.00. As to `COc1cc(C)c2[nH]ccc2c1C[C@H]1CCN(CC(F)(F)F)C[C@@H]1c1ccc(C(=O)O)cc1` [Ex-6], the pIC50 is greater than 4.52. On to `Cc1cc(C)c2[nH]ccc2c1C[C@@H]1CCN(C)C[C@H]1c1ccc(C(=O)O)cc1` [Ex-8, 4-((3R,4R)-4-((5,7-dimethyl-1H-indol-4-yl)methyl)-1-methylpiperidin-3-yl)benzoic acid], for which the negative logarithm of the IC50 (pIC50) was greater than 7.00. As for `Cc1cc(C)c2[nH]ccc2c1C[C@H]1CCN(C)C[C@@H]1c1ccc(C(=O)O)cc1` [Ex-9], the figure is greater than 4.52; as for `CCN1CC[C@@H](Cc2c(C)cc(C)c3[nH]ccc23)[C@H](c2ccc(C(=O)O)cc2)C1` [Ex-10, 4-((3R,4R)-4-((5,7-dimethyl-1H-indol-4-yl)methyl)-1-ethylpiperidin-3-yl)benzoic acid], greater than 7.00; as for `Cc1cc(C)c2[nH]ccc2c1C[C@@H]1CCN(CCF)C[C@H]1c1ccc(C(=O)O)cc1` [Ex-12, 4-((3R,4R)-4-((5,7-dimethyl-1H-indol-4-yl)methyl)-1-(2-fluoroethyl)piperidin-3-yl)benzoic acid], greater than 7.00.

In the case of `COCCN1CC[C@@H](Cc2c(C)cc(C)c3[nH]ccc23)[C@H](c2ccc(C(=O)O)cc2)C1` [Ex-14, 4-((3R,4R)-4-((5,7-dimethyl-1H-indol-4-yl)methyl)-1-(2-methoxyethyl)piperidin-3-yl)benzoic acid], the pIC50 was greater than 7.00.

With `Cc1cc(C)c2[nH]ccc2c1C[C@@H]1CCN(CC(C)(C)O)C[C@H]1c1ccc(C(=O)O)cc1` [Ex-15, 4-((3R,4R)-4-((5,7-dimethyl-1H-indol-4-yl)methyl)-1-(2-hydroxy-2-methylpropyl)piperidin-3-yl)benzoic acid], the pIC50 is greater than 6.00. As for `Cc1cc(C)c2[nH]ccc2c1C[C@@H]1CCN(CC2(F)COC2)C[C@H]1c1ccc(C(=O)O)cc1` [Ex-17, 4-((3R,4R)-4-((5,7-dimethyl-1H-indol-4-yl)methyl)-1-((3-fluorooxetan-3-yl)methyl)piperidin-3-yl)benzoic acid], the figure is greater than 7.00. Take `CCCN1CC[C@@H](Cc2c(C)cc(C)c3[nH]ccc23)[C@H](c2ccc(C(=O)O)cc2)C1` [Ex-20, 4-((3R,4R)-4-((5,7-dimethyl-1H-indol-4-yl)methyl)-1-propylpiperidin-3-yl)benzoic acid]: the pIC50 was greater than 7.00. In the case of `Cc1cc(C)c2[nH]ccc2c1C[C@@H]1CCN(C2COC2)C[C@H]1c1ccc(C(=O)O)cc1` [Ex-21, 4-((3R,4R)-4-((5,7-dimethyl-1H-indol-4-yl)methyl)-1-(oxetan-3-yl)piperidin-3-yl)benzoic acid], the pIC50 is greater than 6.00. On to `Cc1cc(C)c2[nH]ccc2c1C[C@@H]1CCN([C@H]2C[C@H](F)C2)C[C@H]1c1ccc(C(=O)O)cc1` [Ex-22, 4-((3R,4R)-4-((5,7-dimethyl-1H-indol-4-yl)methyl)-1-((1r,3R)-3-fluorocyclobutyl)piperidin-3-yl)benzoic acid], for which the negative logarithm of the IC50 (pIC50) is greater than 7.00. On to `Cc1cc(C)c2[nH]ccc2c1C[C@@H]1CCN(CCC(F)F)C[C@H]1c1ccc(C(=O)O)cc1` [Ex-23, 4-((3R,4R)-1-(3,3-difluoropropyl)-4-((5,7-dimethyl-1H-indol-4-yl)methyl)piperidin-3-yl)benzoic acid], for which the pIC50 was greater than 7.00. Consider `Cc1cc(C)c2[nH]ccc2c1C[C@@H]1CCCN(C)C[C@H]1c1ccc(C(=O)O)cc1` [Ex-27, 4-((3R,4S)-4-((5,7-dimethyl-1H-indol-4-yl)methyl)-1-methylazepan-3-yl)benzoic acid], for which the pIC50 is greater than 7.00. With `CCN1CCC[C@@H](Cc2c(C)cc(C)c3[nH]ccc23)[C@H](c2ccc(C(=O)O)cc2)C1` [Ex-29, 4-((3R,4S)-4-((5,7-dimethyl-1H-indol-4-yl)methyl)-1-ethylazepan-3-yl)benzoic acid], the pIC50 was greater than 7.00. Take `Cc1cc(C)c2[nH]ccc2c1C[C@@H]1CCN(C)CC[C@H]1c1ccc(C(=O)O)cc1` [Ex-30, 4-((4R,5R)-5-((5,7-dimethyl-1H-indol-4-yl)methyl)-1-methylazepan-4-yl)benzoic acid]: the pIC50 is greater than 7.00. For `Cc1cc(C)c2[nH]ccc2c1C[C@@H]1CCN(CCC(F)F)CC[C@H]1c1ccc(C(=O)O)cc1` [Ex-32, 4-((4R,5R)-1-(3,3-difluoropropyl)-5-((5,7-dimethyl-1H-indol-4-yl)methyl)azepan-4-yl)benzoic acid], the negative-log IC50 (pIC50) is greater than 6.00. Take `Cc1ccc(C[C@@H]2CCN(C)C[C@H]2c2ccc(C(=O)O)cc2)c2cc[nH]c12` [Ex-33, 4-((3R,4R)-1-methyl-4-((7-methyl-1H-indol-4-yl)methyl)piperidin-3-yl)benzoic acid]: the pIC50 is greater than 7.00. For `Cc1cc(F)c(C[C@@H]2CCN(C)C[C@H]2c2ccc(C(=O)O)cc2)c2cc[nH]c12` [Ex-35, 4-((3R,4R)-4-((5-fluoro-7-methyl-1H-indol-4-yl)methyl)-1-methylpiperidin-3-yl)benzoic acid], the pIC50 was greater than 7.00. Consider `Cc1cc(Cl)c(C[C@@H]2CCN(C)C[C@H]2c2ccc(C(=O)O)cc2)c2cc[nH]c12` [Ex-36, 4-((3R,4R)-4-((5-chloro-7-methyl-1H-indol-4-yl)methyl)-1-methylpiperidin-3-yl)benzoic acid], for which the pIC50 was greater than 7.00. With `CN1CC[C@@H](Cc2c(Cl)cc(Cl)c3[nH]ccc23)[C@H](c2ccc(C(=O)O)cc2)C1` [Ex-37, 4-((3R,4R)-4-((5,7-dichloro-1H-indol-4-yl)methyl)-1-methylpiperidin-3-yl)benzoic acid], the pIC50 is greater than 7.00.

For the compound `Cc1cc(Cl)c2[nH]ccc2c1C[C@@H]1CCN(C)C[C@H]1c1ccc(C(=O)O)cc1` [Ex-38, 4-((3R,4R)-4-((7-chloro-5-methyl-1H-indol-4-yl)methyl)-1-methylpiperidin-3-yl)benzoic acid], the negative logarithm of the IC50 (pIC50) is greater than 7.00. For `Cc1cc(C)c2[nH]cc(Cl)c2c1C[C@@H]1CCN(C)C[C@H]1c1ccc(C(=O)O)cc1` [Ex-39, 4-((3R,4R)-4-((3-chloro-5,7-dimethyl-1H-indol-4-yl)methyl)-1-methylpiperidin-3-yl)benzoic acid], the pIC50 is greater than 7.00. For the compound `Cc1cc(C)c2[nH]ccc2c1C[C@@H]1CCN(C)C[C@H]1c1ccc(-c2nnn[nH]2)cc1` [Ex-42, 4-(((3R,4R)-3-(4-(1H-tetrazol-5-yl)phenyl)-1-methylpiperidin-4-yl)methyl)-5,7-dimethyl-1H-indole], the negative logarithm of the IC50 (pIC50) was greater than 7.00. As for `Cc1cc(C)c2[nH]ccc2c1C[C@@H]1CCN(CC(F)(F)F)C[C@H]1c1ccc(-c2nnn[nH]2)cc1` [Ex-43, 4-(((3R,4R)-3-(4-(1H-tetrazol-5-yl)phenyl)-1-(2,2,2-trifluoroethyl)piperidin-4-yl)methyl)-5,7-dimethyl-1H-indole], the pIC50 is greater than 7.00. For the compound `Cc1cc(C)c2[nH]ccc2c1C[C@@H]1CCN(C)C[C@H]1c1ccc(C#N)cc1` [Ex-44, 4-((3R,4R)-4-((5,7-dimethyl-1H-indol-4-yl)methyl)-1-methylpiperidin-3-yl)benzonitrile], the negative-log IC50 (pIC50) is greater than 6.00. Regarding `Cc1cc(C)c2[nH]ccc2c1C[C@@H]1CCN(CC(F)(F)F)C[C@H]1c1ccc(C#N)cc1` [Ex-45, 4-((3R,4R)-4-((5,7-dimethyl-1H-indol-4-yl)methyl)-1-(2,2,2-trifluoroethyl)piperidin-3-yl)benzonitrile], the pIC50 is greater than 4.52. On to `Cc1cc(C)c2[nH]ccc2c1C[C@@H]1CCN(C)C[C@H]1c1ccc(-n2cccn2)cc1` [Ex-46, 4-(((3R,4R)-3-(4-(1H-pyrazol-1-yl)phenyl)-1-methylpiperidin-4-yl)methyl)-5,7-dimethyl-1H-indole], for which the pIC50 is greater than 7.00. With `Cc1cc(C)c2[nH]ccc2c1C[C@@H]1CCN(CC(F)(F)F)C[C@H]1c1ccc(-n2cccn2)cc1` [Ex-47, 4-(((3R,4R)-3-(4-(1H-pyrazol-1-yl)phenyl)-1-(2,2,2-trifluoroethyl)piperidin-4-yl)methyl)-5,7-dimethyl-1H-indole], the pIC50 was greater than 6.00.
